Results: US20190374515A1, “THERAPEUTIC DRUG OR PROPHYLACTIC DRUG FOR DIABETIC NEPHROPATHY” (TEIJIN PHARMA LIMITED, priority 2016, published 2019)

Experiments:
[1] = Plasma uric acid concentration in ZDF rats by LC-MS/MS (Example 1); format: in vivo, rat
Protocol: (§1) The plasma uric acid level was measured by LC-MS/MS. Compared to the Control group which had normal blood glucose levels, the urinary albumin excretion in the Vehicle group which consisted of ZDF rats that had type II diabetes and had been administered the solvent were increased in time-dependent manner.

ZDF rats [2] = assay: Urinary Podocalyxyn excretion (glomerular damage marker) in ZDF rats (Example 2); settings: 12th week; for Urinary Podocalyxyn excretion: mean ± SE
Protocol: (§2) Podocalyxyn was used as a marker for glomerular damage and Kidney Injury Marker-1 (KIM-1) was used as a marker for renal tubular damage, with a Podocalyxin rELISA Kit (EXOCELL) and a Rat TIM-1/KIM-1/HAVCR Qauntikine ELISA Kit (R&D Systems), respectively.
(§3) As a control group, ZDF rats were orally administered a solvent (0.5% methyl cellulose) once per day for 12 weeks (Vehicle group). Urine was collected for 24 hours at the 12th week of administration, and the urinary albumin concentration, urine Podocalyxyn concentration, urine KIM-1 concentration and urinary volume were measured.

ZDF rats [3] = assay: Urinary KIM-1 excretion (renal tubular damage marker) in ZDF rats (Example 2); settings: 12th week; for Urinary KIM-1 excretion: mean ± SE
Protocol: as §2, §3

[4] = test system: Zucker Diabetic Fatty (ZDF) rats; assay: Urinary albumin excretion in ZDF rats, 13-week oral dosing (Example 1); format: in vivo, rat; settings: for Cumulative urinary albumin excretion (AUC0-12 wks): initial administration until 12th week
Protocol: as §1

ZDF rats [5] = assay: Urinary albumin excretion in ZDF rats, 12-week oral dosing (Example 2); settings: 12th week; for Urinary albumin excretion: mean ± SE
Protocol: as §2, §3

## Cc1nc(-c2ccc(OCC(C)C)c(-n3cnnn3)c2)sc1C(=O)O [Compound 1, 4-Methyl-2-[4-(2-methylpropoxy)-3-(1H-1,2,3,4-tetrazol-1-yl)phenyl]-1,3-thiazole-5-carboxylic acid]
[1]; 1 mg/kg and 3 mg/kg doses
  Plasma uric acid concentration compared to the Vehicle group (in words): significantly decreased
[1]; 3 mg/kg oral once per day, 24 hours after administration at 13th week, mean ± SE
  Plasma uric acid concentration: 0.18 ± 0.01 mg/dL
ZDF rats [2]; 0.1 mg/kg oral once per day
  Urinary Podocalyxyn excretion: 32.5 ± 3.3 µg/day
ZDF rats [2]; 0.3 mg/kg oral once per day
  Urinary Podocalyxyn excretion: 22.3 ± 2.9 µg/day
ZDF rats [2]; 1 mg/kg oral once per day
  Urinary Podocalyxyn excretion: 20.6 ± 4.4 µg/day
ZDF rats [2]
  Podocalyxyn, marker for glomerular damage (in words): reduced
ZDF rats [3]; 0.1 mg/kg oral once per day
  Urinary KIM-1 excretion: 64.3 ± 22.1 ng/day
ZDF rats [3]; 0.3 mg/kg oral once per day
  Urinary KIM-1 excretion: 22.3 ± 2.9 ng/day
ZDF rats [3]; 1 mg/kg oral once per day
  Urinary KIM-1 excretion: 18.1 ± 2.0 ng/day
ZDF rats [3]
  KIM-1, marker for renal tubular damage (in words): reduced
[4]; 1 mg/kg oral once per day, mean ± SE
  Cumulative urinary albumin excretion (AUC0-12 wks): 294.8 ± 38.1
[4]; 1 mg/kg oral once per day, week 0 (before administration), mean ± SE
  Urinary albumin excretion: 3.37 ± 0.83 µg/day
[4]; 1 mg/kg oral once per day, week 2, mean ± SE
  Urinary albumin excretion: 4.78 ± 0.87 µg/day
[4]; 1 mg/kg oral once per day, week 4, mean ± SE
  Urinary albumin excretion: 8.90 ± 1.63 µg/day
[4]; 1 mg/kg oral once per day, week 6, mean ± SE
  Urinary albumin excretion: 21.96 ± 3.79 µg/day
[4]; 1 mg/kg oral once per day, week 8, mean ± SE
  Urinary albumin excretion: 38.74 ± 5.64 µg/day
[4]; 1 mg/kg oral once per day, week 10, mean ± SE
  Urinary albumin excretion: 41.33 ± 5.47 µg/day
[4]; 1 mg/kg oral once per day, week 12, mean ± SE
  Urinary albumin excretion: 60.00 ± 8.58 µg/day
[4]; 3 mg/kg oral once per day, mean ± SE
  Cumulative urinary albumin excretion (AUC0-12 wks): 279.4 ± 27.1
[4]; 3 mg/kg oral once per day, week 0 (before administration), mean ± SE
  Urinary albumin excretion: 3.91 ± 1.06 µg/day
[4]; 3 mg/kg oral once per day, week 2, mean ± SE
  Urinary albumin excretion: 7.64 ± 1.66 µg/day
[4]; 3 mg/kg oral once per day, week 4, mean ± SE
  Urinary albumin excretion: 14.43 ± 2.90 µg/day
[4]; 3 mg/kg oral once per day, week 6, mean ± SE
  Urinary albumin excretion: 21.97 ± 1.75 µg/day
[4]; 3 mg/kg oral once per day, week 8, mean ± SE
  Urinary albumin excretion: 23.38 ± 3.09 µg/day
[4]; 3 mg/kg oral once per day, week 10, mean ± SE
  Urinary albumin excretion: 37.37 ± 4.11 µg/day
[4]; 3 mg/kg oral once per day, week 12, mean ± SE
  Urinary albumin excretion: 65.88 ± 8.33 µg/day
[4]; at both the 1 mg/kg and 3 mg/kg doses
  Urinary albumin excretion compared to the Vehicle group (in words): significantly reduced
ZDF rats [5]; 0.1 mg/kg oral once per day
  Urinary albumin excretion: 96.50 ± 9.61 µg/day
ZDF rats [5]; 0.3 mg/kg and 1 mg/kg doses
  Urinary albumin excretion compared to the Vehicle group (in words): significantly reduced
ZDF rats [5]; 0.3 mg/kg oral once per day
  Urinary albumin excretion: 70.18 ± 60.94 µg/day
